Reference: patent US20230085307A1, “PYRIDAZINONE COMPOUND AND HERBICIDE” (NISSAN CHEMICAL CORPORATION, priority 2019, published 2023)

What was measured:
blackgrass [1] = assay: Test Example 5: herbicidal effect by foliage application, plastic box (Table 20, symbol J); type: in vivo, blackgrass (Alopecurus myosuroides); conditions: foliage application, AAH 320 g/ha, evaluated three weeks after application
How it was run: (§1)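 Foliar spray test: emulsion formulation diluted in water to a set application rate, sprayed onto 14-day-old plants raised in diluvial soil at 25° C to 30° C under glass. Both herbicidal effect and crop effect rated visually three weeks later.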

chickweed [2] = assay: Test Example 5: herbicidal effect by foliage application, plastic box (Table 20, symbol P); type: in vivo, common chickweed (Stellaria media); conditions: foliage application, AAH 320 g/ha, evaluated three weeks after application
How it was run: as §1

velvetleaf [3] = assay: Test Example 5: herbicidal effect by foliage application, plastic box (Table 20, symbol M); type: in vivo, velvetleaf (Abutilon theophrasti); conditions: foliage application, AAH 320 g/ha, evaluated three weeks after application
How it was run: as §1

Italian ryegrass [4] = assay: Test Example 5: herbicidal effect by foliage application, plastic box (Table 20, symbol K); type: in vivo, Italian ryegrass (Lolium multiflorum); conditions: foliage application, AAH 320 g/ha, evaluated three weeks after application
How it was run: as §1

Italian ryegrass [5] = assay: Test Example 4: herbicidal effect by soil treatment (Table 19, symbol K); type: in vivo, Italian ryegrass (Lolium multiflorum); conditions: amount of applied herbicide 320 g/ha
How it was run: (§2)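 Step 1: sow seeds in sterilized diluvial soil, cover ~1.5 cm. Step 2: spray diluted emulsion onto soil surface at predetermined rate. Step 3: greenhouse, 25–30° C, three weeks. Step 4: grade effect on each plant by earlier criteria.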

barnyard grass [6] = assay: Test Example 5: herbicidal effect by foliage application, plastic box (Table 20, symbol H); type: in vivo, barnyard grass (Echinochloa crus-galli); conditions: foliage application, AAH 320 g/ha, evaluated three weeks after application
How it was run: as §1

redroot pigweed [7] = assay: Test Example 5: herbicidal effect by foliage application, plastic box (Table 20, symbol N); type: in vivo, redroot pigweed (Amaranthus retroflexus); conditions: foliage application, AAH 320 g/ha, evaluated three weeks after application
How it was run: as §1

redroot pigweed [8] = assay: Test Example 4: herbicidal effect by soil treatment (Table 19, symbol N); type: in vivo, redroot pigweed (Amaranthus retroflexus); conditions: amount of applied herbicide 320 g/ha
How it was run: as §2

southern crabgrass [9] = assay: Test Example 5: herbicidal effect by foliage application, plastic box (Table 20, symbol F); type: in vivo, southern crabgrass (Digitaria ciliaris); conditions: foliage application, AAH 320 g/ha, evaluated three weeks after application
How it was run: as §1

blackgrass [10] = assay: Test Example 4: herbicidal effect by soil treatment (Table 19, symbol J); type: in vivo, blackgrass (Alopecurus myosuroides); conditions: amount of applied herbicide 320 g/ha
How it was run: as §2

chickweed [11] = assay: Test Example 4: herbicidal effect by soil treatment (Table 19, symbol P); type: in vivo, common chickweed (Stellaria media); conditions: amount of applied herbicide 320 g/ha
How it was run: as §2

lambsquarters [12] = assay: Test Example 4: herbicidal effect by soil treatment (Table 19, symbol O); type: in vivo, lambsquarters (Chenopodium album); conditions: amount of applied herbicide 320 g/ha
How it was run: as §2

southern crabgrass [13] = assay: Test Example 4: herbicidal effect by soil treatment (Table 19, symbol F); type: in vivo, southern crabgrass (Digitaria ciliaris); conditions: amount of applied herbicide 320 g/ha
How it was run: as §2

oval-leafed pondweed = assay: Test Example 1: herbicidal activity, application before weed generation under submerged conditions (Table 16, symbol C); type: in vivo, oval-leafed pondweed (Monochoria vaginalis); conditions: 320 g/ha applied herbicide
How it was run: (§3)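 Alluvial soil was flooded to 4 cm depth, weed seeds were sown mixed and 2.5-leaf rice seedlings were transplanted. On sowing day, the compound's emulsion, diluted in water to a set dose, was applied to the water surface. Plants grew at 25–30 °C and were scored 0–5 after three weeks.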

false cleavers = assay: Test Example 4: herbicidal effect by soil treatment (Table 19, symbol Q); type: in vivo, false cleavers (Galium spurium); conditions: amount of applied herbicide 320 g/ha
How it was run: as §2

Japanese bulrush = assay: Test Example 1: herbicidal activity, application before weed generation under submerged conditions (Table 16, symbol B); type: in vivo, Japanese bulrush (Schoenoplectus juncoides); conditions: 320 g/ha applied herbicide
How it was run: as §3

green foxtail [14] = assay: Test Example 4: herbicidal effect by soil treatment (Table 19, symbol G); type: in vivo, green foxtail (Setaria viridis); conditions: amount of applied herbicide 320 g/ha
How it was run: as §2

persian speedwell [15] = assay: Test Example 4: herbicidal effect by soil treatment (Table 19, symbol R); type: in vivo, Persian speedwell (Veronica persica); conditions: amount of applied herbicide 320 g/ha
How it was run: as §2

rice flat sedge = assay: Test Example 3: herbicidal effect by foliage application, Wagner pot (Table 18, symbol E); type: in vivo, rice flat sedge (Cyperus iria); conditions: amount of applied herbicide 320 g/ha
How it was run: (§4)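 Plants were sown in alluvial soil held under 0.1–0.5 cm standing water and grown 14 days in a greenhouse at 25–30 °C. An emulsifiable formulation, water-diluted to the set dose, was then sprayed onto the foliage, and effects were scored three weeks later using previously defined criteria.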

barnyard grass [16] = assay: Test Example 3: herbicidal effect by foliage application, Wagner pot (Table 18, symbol H); type: in vivo, barnyard grass (Echinochloa crus-galli); conditions: amount of applied herbicide 320 g/ha
How it was run: as §4

windgrass [17] = assay: Test Example 5: herbicidal effect by foliage application, plastic box (Table 20, symbol L); type: in vivo, windgrass (Apera spica-venti); conditions: foliage application, AAH 320 g/ha, evaluated three weeks after application
How it was run: as §1

late watergrass = assay: Test Example 1: herbicidal activity, application before weed generation under submerged conditions (Table 16, symbol A); type: in vivo, late watergrass (Echinochloa oryzicola); conditions: 320 g/ha applied herbicide
How it was run: as §3

barnyard grass [18] = assay: Test Example 4: herbicidal effect by soil treatment (Table 19, symbol H); type: in vivo, barnyard grass (Echinochloa crus-galli); conditions: amount of applied herbicide 320 g/ha
How it was run: as §2

persian speedwell [19] = assay: Test Example 5: herbicidal effect by foliage application, plastic box (Table 20, symbol R); type: in vivo, Persian speedwell (Veronica persica); conditions: foliage application, AAH 320 g/ha, evaluated three weeks after application
How it was run: as §1

green foxtail [20] = assay: Test Example 5: herbicidal effect by foliage application, plastic box (Table 20, symbol G); type: in vivo, green foxtail (Setaria viridis); conditions: foliage application, AAH 320 g/ha, evaluated three weeks after application
How it was run: as §1

lambsquarters [21] = assay: Test Example 5: herbicidal effect by foliage application, plastic box (Table 20, symbol O); type: in vivo, lambsquarters (Chenopodium album); conditions: foliage application, AAH 320 g/ha, evaluated three weeks after application
How it was run: as §1

velvetleaf [22] = assay: Test Example 4: herbicidal effect by soil treatment (Table 19, symbol M); type: in vivo, velvetleaf (Abutilon theophrasti); conditions: amount of applied herbicide 320 g/ha
How it was run: as §2

wild oat [23] = assay: Test Example 4: herbicidal effect by soil treatment (Table 19, symbol I); type: in vivo, wild oat (Avena fatua); conditions: amount of applied herbicide 320 g/ha
How it was run: as §2

windgrass [24] = assay: Test Example 4: herbicidal effect by soil treatment (Table 19, symbol L); type: in vivo, windgrass (Apera spica-venti); conditions: amount of applied herbicide 320 g/ha
How it was run: as §2

wild oat [25] = assay: Test Example 5: herbicidal effect by foliage application, plastic box (Table 20, symbol I); type: in vivo, wild oat (Avena fatua); conditions: foliage application, AAH 320 g/ha, evaluated three weeks after application
How it was run: as §1

Chinese sprangletop = assay: Test Example 3: herbicidal effect by foliage application, Wagner pot (Table 18, symbol D); type: in vivo, chinese sprangletop (Leptochloa chinensis); conditions: amount of applied herbicide 320 g/ha
How it was run: as §4

Cc1nn(C)c(=O)c(-c2c(-c3cccc(O)c3)sc3ccc(F)cc23)c1O [2-336]
J: blackgrass, herbicidal effect (criteria 0-5) (blackgrass [1]): 3 (Herbicidal rate of 40% or more and less than 70%)
P: chickweed, herbicidal effect (criteria 0-5) (chickweed [2]): 5 (Herbicidal rate of 90% or more (almost completely withered))
M: velvetleaf, herbicidal effect (criteria 0-5) (velvetleaf [3]): 1 (Herbicidal rate of 5% or more and less than 20%)
K: Italian ryegrass, herbicidal effect (criteria 0-5) (Italian ryegrass [4]): 4 (Herbicidal rate of 70% or more and less than 90%)
herbicidal effect on K: Italian ryegrass (Italian ryegrass [5]): 3 (Herbicidal rate of 40% or more and less than 70%)
H: barnyard grass, herbicidal effect (criteria 0-5) (barnyard grass [6]): 1 (Herbicidal rate of 5% or more and less than 20%)
N: redroot pigweed, herbicidal effect (criteria 0-5) (redroot pigweed [7]): 5 (Herbicidal rate of 90% or more (almost completely withered))
herbicidal effect on N: redroot pigweed (redroot pigweed [8]): 5 (Herbicidal rate of 90% or more (almost completely withered))
F: southern crabgrass, herbicidal effect (criteria 0-5) (southern crabgrass [9]): 5 (Herbicidal rate of 90% or more (almost completely withered))
herbicidal effect on J: blackgrass (blackgrass [10]): 0 (Herbicidal rate of 5% or less (almost no effect))
herbicidal effect on P: chickweed (chickweed [11]): 3 (Herbicidal rate of 40% or more and less than 70%)
herbicidal effect on O: lambsquarters (lambsquarters [12]): 3 (Herbicidal rate of 40% or more and less than 70%)
herbicidal effect on F: southern crabgrass (southern crabgrass [13]): 3 (Herbicidal rate of 40% or more and less than 70%)
Herbicidal effect on C: oval-leafed pondweed (grade 0-5) (oval-leafed pondweed): 0 (Herbicidal rate of 5% or less (almost no effect))
herbicidal effect on Q: false cleavers (false cleavers): 0 (Herbicidal rate of 5% or less (almost no effect))
Herbicidal effect on B: Japanese bulrush (grade 0-5) (Japanese bulrush): 3 (Herbicidal rate of 40% or more and less than 70%)
herbicidal effect on G: green foxtail (green foxtail [14]): 5 (Herbicidal rate of 90% or more (almost completely withered))
herbicidal effect on R: persian speedwell (persian speedwell [15]): 5 (Herbicidal rate of 90% or more (almost completely withered))
herbicidal effect on E: rice flat sedge (rice flat sedge): 3 (Herbicidal rate of 40% or more and less than 70%)
herbicidal effect on H: barnyard grass (barnyard grass [16]): 5 (Herbicidal rate of 90% or more (almost completely withered))
L: windgrass, herbicidal effect (criteria 0-5) (windgrass [17]): 4 (Herbicidal rate of 70% or more and less than 90%)
Herbicidal effect on A: late watergrass (grade 0-5) (late watergrass): 0 (Herbicidal rate of 5% or less (almost no effect))
herbicidal effect on H: barnyard grass (barnyard grass [18]): 4 (Herbicidal rate of 70% or more and less than 90%)
R: persian speedwell, herbicidal effect (criteria 0-5) (persian speedwell [19]): 5 (Herbicidal rate of 90% or more (almost completely withered))
G: green foxtail, herbicidal effect (criteria 0-5) (green foxtail [20]): 5 (Herbicidal rate of 90% or more (almost completely withered))
O: lambsquarters, herbicidal effect (criteria 0-5) (lambsquarters [21]): 4 (Herbicidal rate of 70% or more and less than 90%)
herbicidal effect on M: velvetleaf (velvetleaf [22]): 3 (Herbicidal rate of 40% or more and less than 70%)
herbicidal effect on I: wild oat (wild oat [23]): 0 (Herbicidal rate of 5% or less (almost no effect))
herbicidal effect on L: windgrass (windgrass [24]): 0 (Herbicidal rate of 5% or less (almost no effect))
I: wild oat, herbicidal effect (criteria 0-5) (wild oat [25]): 0 (Herbicidal rate of 5% or less (almost no effect))
herbicidal effect on D: Chinese sprangletop (Chinese sprangletop): 0 (Herbicidal rate of 5% or less (almost no effect))
